Earlier results, collected in US12582584B2, “Oxidizer and acid based system and regimen for enhancing skin appearance” (L'OREAL, priority 2021, dated 2026).

Settings: acute oral toxicity, mutagenicity, skin irritation, skin sensitization, phototoxicity

CC(c1ccccc1)c1ccc(O)cc1O (stereo not shown) [Phenylethyl resorcinol]
Adverse effects in basic toxicological tests: has not shown adverse effects
